Series [1] can be described thus: Plasma pharmacokinetics in vivo. The settings on record: SD, rat, rats. How it is done: SD rats (n = 6) were intragastrically administered Cbz-dFdC (22 mg/kg) and intravenously injected with dFdC (15 mg/kg), and 150 μL blood samples were collected from the retro-orbital route in the right eye at 0, 5, 10, 20, and 30 min and at 1, 2, 4, 6, 12, 24, and 48 h, using heparinized tubes. Without delay, the blood was directly centrifuged at 8000× g at 4 °C for 5 min. Then, the supernatant plasma was collected and immediately extracted using a previously established method or was frozen at −80 °C until further analysis.

Series [2] can be described thus: Tissue distribution (liver, kidney, intestine). The series is classed as in vivo, SD rats. The settings on record: rats; drug concentration in tissue lower than plasma concentration. On the procedure:
In order to investigate the drug distribution in different tissues and the relationship between CES1 activity and tissue concentration, we conducted tissue distribution experiments. The SD rats were divided into six groups (n = 6 for each group). After a single intragastric administration of Cbz-dFdC (22 mg/kg) and a single injected administration of dFdC (15 mg/kg), the SD rats were sacrificed at 0.5 h, 1.5 h, and 4 h, and the liver, kidney, and intestine were collected. The liver was perfused with ice-cold normal saline and then removed, followed by ice-cold normal saline cleaning. The kidney and intestine were directly removed and then washed with ice-cold normal saline. All of the above operations were carried out on ice, and the removed tissue was stored in an ice bath. The liver, kidney, and intestine were cut and crushed, homogenized with an appropriate amount of phosphate buffer by a homogenizer, and then diluted 5 times with ice-cold PBS buffer (in an ice bath). The tissue homogenates were determined with a BCA kit for protein concentration, a CES1 kit for CES1 activity, and UFLC–MS/MS for drug tissue concentration after pretreatment; the pretreatment method was reported previously.

The subject of series [3] is human HepG2 cell line. The series is described as follows: CCK-8 tumor cell growth inhibition assay. The series is classed as cell-based. The settings on record: HepG2, CCK-8, concentration-dependent. How it is done:
(§1) The cells were cultured on a 96-well plate for 4 h for each well. Then, dimethyl sulfoxide solution containing 0.1–100 mM of Cbz-dFdC and dFdC was diluted 1000 times with the medium before administration. A total of 200 uL of medium containing Cbz-dFdC and dFdC was added per well (n = 6). The medium with drugs was discarded, and 10% CCK-8 solution was added. Then, the absorbance value was read at a wavelength of 450 nm after incubation at 37 °C, for 30 min. The drug concentration of Cbz-dFdC and dFdC in cell were determined by a previously established method.

Series [4] deals with HepG2 cells. The series is described as follows: Cell uptake in HepG2 cells. The series is classed as cell-based, human. How it is done:
as §1

Details of series [5]: method as in PMID 22099048. The settings on record: humans, after intravenous injection; cited from earlier work.
On the set-up of series [6]: method as in PMID 22099048. The settings on record: rats, after intravenous injection; cited from earlier work.
Details of series [7]: method as in PMID 22099048. The settings on record: cited from earlier work.
Series [8] deals with cytidine kinase. Further details: method as in PMID 1718594, PMID 1740680, PMID 8033147, PMID 12127861, PMID 23230131. The settings on record: after intravenous injection; cited from earlier work.
Substrate in series [9]: O=C(Nc1ccn([C@@H]2O[C@H](CO)[C@@H](O)C2(F)F)c(=O)n1)OCc1ccccc1
The series is described as follows: Enzymatic kinetics in vitro, human CES1 recombinase. The settings on record: other: Human CES1 Recombinase, 37 °C, 30 min, 5–200 μM Cbz-dFdC. The series is classed as in vitro ADME. How it is done:
The SD rats without any treatment were sacrificed after adapting to the environment. Blank blood, the liver, the kidney, and the intestine were collected and treated as described in Section 4.4. Part of the homogenate was removed for centrifugation for 20 min at 9000× g at 4 °C, and the supernatant was obtained as tissue S9. The tissue homogenate and S9 were diluted to […] after the protein concentration was determined by the BCA kit (Abcam, Cambridge, MA, USA). Each matrix consisted of 45 uL of the matrix mixed with 5 uL of the drug dissolved in normal saline solution for about 3 min, followed by incubation at 37 °C in a water bath. Then, acetonitrile containing the internal standard was added to terminate the reaction. Human tissue S9 and human CES1 recombinase purchased from the Ruid Liver Disease Research Co., Ltd. (Shanghai, China) were incubated under the same conditions. An enzyme kinetic study was obtained from the matrix following incubation at 37 °C for 30 min with 5, 10, 20, 50, 100, or 200 μM of Cbz-dFdC. We estimated the parameters and simulated curves according to the Eadie–Hofstee method.

The mark [10] stands for this setting: iv, plasma, after i.v. dFdC 15 mg/kg.
Setting [11] is: plasma, 15 mg/kg, after dFdC intravenous injection.
Where [12] appears, read: plasma, oral, 22 mg/kg, dFdC metabolized from Cbz-dFdC after i.g. Cbz-dFdC.
Setting [13] is: po, plasma analyte after i.g. Cbz-dFdC 22 mg/kg.

These results are taken from article PMC7248705, “A Pharmacokinetic and Pharmacodynamic Evaluation of the Anti-Hepatocellular Carcinoma Compound 4-N-Carbobenzoxy-gemcitabine (Cbz-dFdC)” (Molecules, 2020).

Where two headings read alike, the source gives them in different places.

Broadly, the AUC(0-inf) is total exposure, with the tail of the curve extrapolated. High values mean high exposure, low ones low exposure. The term Cmax denotes the peak of the concentration-time curve. For orientation: Tmax means the time from dosing to the highest level. In general, half-life refers to how long it takes for the measured level to halve. Turning to `Nc1ccn([C@@H]2O[C@H](CO)[C@@H](O)C2(F)F)c(=O)n1` [dFdC, Gemcitabine], the AUC(0-inf) in [1] (setting [10]) worked out at 22700 ng·h/mL; in series [1] (setting [13]), 27500 ng·h/mL. In addition, the Cmax in series [1] (setting [10]) worked out at 14100 ng/mL; in series [1] (setting [13]), 1660 ± 432 ng/mL. The Tmax amounted to 0.083 h in series [1] (setting [10]) and 4 h in series [1] (setting [13]). Further, the half-life in series [1] (setting [10]) is 10.6 ± 1.86 h; in [1] (setting [13]) it was 10.4 ± 0.91 h; in series [5] it was 0.2 h; in series [6] it was 2.0 h. The results for the concentration at 12 h in series [1] (setting [11]) and in series [1] (setting [12]) were ~200 ng/mL and ~600 ng/mL, respectively. Further, the values for the concentration at 48 h in series [1] (setting [11]) and in series [1] (setting [12]) were ~40 ng/mL and ~130 ng/mL, respectively. The concentration at 24 h in series [1] (plasma, intravenous, after i.v. dFdC 15 mg/kg) is ~130 ng/mL; in series [1] (plasma, oral, 22 mg/kg, after i.g. Cbz-dFdC), ~300 ng/mL. Also, the C0 in [1] (plasma, iv, after i.v. dFdC 15 mg/kg, read-out: initial plasma concentration) is ~15000 ng/mL. For the same molecule, the tissue penetration entry in series [2] was “weak tissue penetration”. Besides, the “cytotoxicity / tumor cell growth inhibition” value in [3] is recorded as “better than that of Cbz-dFdC”. Moreover, in series [4], the “intracellular concentration (cell uptake)” value is “higher than that of dFdC, after the Cbz-dFdC treatment”. Further, the “toxic effects on the gastrointestinal tract” value in [7] is listed as “serious toxic effects on the gastrointestinal tract”. The “active monophosphate, diphosphate and triphosphate metabolites, share of the dose” value in series [8] is “about 10%”.

B1: Human CES1 Recombinase (Homo sapiens) (protein)
chain: GHPSSPPVVDTVHGKVLGKFVSLEGFAQPVAIFLGIPFAKPPLGPLRFTPPQPAEPWSFVKNATSYPPMCTQDPKAGQLLSELFTNRKENIPLKLSEDCLYLNIYTPADLTKKNRLPVMVWIHGGGLMVGAASTYDGLALAAHENVVVVTIQYRLGIWGFFSTGDEHSRGNWGHLDQVAALRWVQDNIASFGGNPGSVTIFGESAGGESVSVLVLSPLAKNLFHRAISESGVALTSVLVKKGDVKPLAEQIAITAGCKTTTSAVMVHCLRQKTEEELLETTLKMKFLSLDLQGDPRESQPLLGTVIDGMLLLKTPEELQAERNFHTVPYMVGINKQEFGWLIPMQLMSYPLSEGQLDQKTAMSLLWKSYPLVCIAKELIPEATEKYLGGTDDTVKKKDLFLDLIADVMFGVPSVIVARNHRDAGAPTYMYEFQYRPSFSSDMKPKTVIGDHGDELFSVFGAPFLKEGASEEEIRLSKMVMKFWANFARNGNPNGEGLPHWPEYNQKEGYLQIGANTQAAQKLKDKEVAFWTNLFAKKAVEKPPQTEHIEL
notes: purchased Ruid Liver Disease Research Co., Ltd. (Shanghai, China)
As usually defined, the Km is the concentration of substrate that gives half-maximal velocity. On to B1, for which, in series [9] (appearance of dFdC), the Km is 107.2 µM and the Vmax/Km stood at 36500 µL/min/mg. Moreover, in [9] (disappearance of Cbz-dFdC), the Km is 258.6 µM and the Vmax/Km came out at 72700 µL/min/mg.
